Ends that are not written are not given here. Peptide text beside a SMILES is read from it.
What was measured:
in vitro [1] = conditions: human, HeLa cells
in vitro [2] = conditions: human, HeLa cells; remark: listed apart in the source
HeLa cells = test: GFP-NLS protein transduction assay (flow cytometry: Pos cells %, viability %, relative fluorescence intensity; microscopy); conditions: GFP-NLS 5 μM; for Cell viability (%) (±St. Dev.; n = 3): Protocol B; for Cell viability (%) (±St. Dev.; n = 3) / FIG. 21B Cell viability (%) (±St. Dev.; n = 3): HeLa; for FIG. 21B Cell viability (%) (±St. Dev.; n = 3): Table 8.1, 1 hour; for cell viability: peptide 20 μM, Protocol B (Table 10.3e)
[3] = Cell viability (%) (±St. Dev.; n = 3)
[4] = Cell viability (%) (±St Dev.; n = 3)
[5] = Table 10.3e, shuttle 20 μM, 1 minute
[6] = Table 10.1, shuttle 50 μM, 10 seconds

Compound	viability (in vitro [1]) [%]	viability at 1 min, 10 µM (in vitro [2]; [3]) [%]	further results
CC[C@H](C)[C@H](N)C(=O)N[C@H](C(=O)N[C@@H](CCCNC(=N)N)C(=O)N[C@@H](Cc1c[nH]cn1)C(=O)N[C@@H](CCC(=O)O)C(=O)N[C@@H](Cc1c[nH]cn1)C(=O)N[C@@H](CS)C(=O)N[C@@H](CCSC)C(=O)N[C@H](C(=O)N[C@@H](Cc1c[nH]cn1)C(=O)N[C@@H](CC(C)C)C(=O)N[C@@H](Cc1c[nH]c2ccccc12)C(=O)N[C@@H](Cc1ccc(O)cc1)C(=O)N[C@@H](CCCCN)C(=O)N[C@@H](CC(N)=O)C(=O)N[C@@H](CC(C)C)C(=O)N[C@@H](C)C(=O)N[C@@H](CCCCN)C(=O)N[C@@H](Cc1ccc(O)cc1)C(=O)N[C@@H](CS)C(=O)N[C@@H](CO)C(=O)N[C@H](C(=O)N[C@@H](CO)C(=O)N[C@@H](Cc1c[nH]cn1)C(=O)N[C@@H](C)C(=O)N[C@@H](CCCNC(=N)N)C(=O)N[C@@H](CCCNC(=N)N)C(=O)N[C@@H](CC(C)C)C(=O)N[C@@H](C)C(=O)N[C@@H](CCCNC(=N)N)C(=O)N[C@@H](CCCNC(=N)N)C(=O)N[C@@H](CCCNC(=N)N)C(=O)N[C@@H](C)C(=O)N[C@@H](Cc1c[nH]cn1)C(=O)N[C@@H](Cc1c[nH]cn1)C(=O)O)[C@@H](C)O)[C@@H](C)CC)C(C)C [FSD32] (H-IVRHEHCMIHLWYKNLAKYCSTSHARRLARRRAHH-OH)	98.36 ± 0.15	99.2 ± 3.37	
CC[C@H](C)[C@H](NC(=O)[C@H](Cc1c[nH]cn1)NC(=O)[C@@H](NC(=O)[C@H](CC(C)C)NC(=O)[C@H](CS)NC(=O)[C@H](Cc1c[nH]cn1)NC(=O)[C@H](Cc1c[nH]cn1)NC(=O)[C@H](Cc1c[nH]cn1)NC(=O)[C@H](Cc1c[nH]cn1)NC(=O)[C@H](Cc1c[nH]cn1)NC(=O)[C@@H](N)Cc1c[nH]cn1)[C@@H](C)CC)C(=O)N[C@@H](Cc1c[nH]c2ccccc12)C(=O)N[C@@H](CCC(=O)O)C(=O)N[C@@H](C)C(=O)N[C@@H](CCCCN)C(=O)N[C@@H](CC(C)C)C(=O)N[C@@H](C)C(=O)N[C@@H](CCCCN)C(=O)N[C@@H](CCCCN)C(=O)N[C@@H](CS)C(=O)NCC(=O)NCC(=O)NCC(=O)NCC(=O)N[C@@H](Cc1ccc(O)cc1)C(=O)N[C@@H](C)C(=O)N[C@@H](CCCNC(=N)N)C(=O)N[C@@H](C)C(=O)N[C@@H](C)C(=O)N[C@@H](C)C(=O)N[C@@H](CCCNC(=N)N)C(=O)N[C@@H](CCC(N)=O)C(=O)N[C@@H](C)C(=O)N[C@@H](CCCNC(=N)N)C(=O)N[C@@H](C)C(=O)O [FSD36] (H-HHHHHHCLIHIWEAKLAKKCGGGGYARAAARQARA-OH)	97 ± 1.99	98.9 ± 0.38	
ALLGLFIKWVKKVGTLFRKAKAGAQNRRAKAQKGK [FSD26]	97.2 ± 1.53		viability (in vitro [2]; [4]): 59.3 ± 1.27%
GHHHHHHHLIHIWEAKLAKLAKALARAAARQARAK [FSD38]	95 ± 2.78	98.1 ± 7.35	
HHHHAAVLKLWKRLLKLFRKGRRLKAKRAKAKR [FSD20]	20.5 ± 3.53		viability (in vitro [2]; [4]): 65.4 ± 6.18%
HHHHHHCLLKKWEAKLAKKIGGGGRQARAKALAKA [FSD30]	97.4 ± 2.06	99.1 ± 0.52	
HHHHHHHHRQRRRWEARGFLGGGGYARAARQARAA [FSD39]	99.2 ± 0.61	97.3 ± 2.07	
HHHHHHHHRQRRRWEARGGFLGGGGYARAARQARA [FSD33]	75.3 ± 4.19	98.1 ± 1.73	
HHHHHHHMAHLWESNARKFWKKAFAQHAAAHIAEA [FSD28]	97 ± 1.11	99.4 ± 4.04	
HHHHHHKLIHIWEAKLFKKIRAAARQARARRAAKA [FSD34]	96.4 ± 2.41	97.9 ± 8.18	viability at 1 min, 10 µM (in vitro [2]; cell viability): 83.9 to 98%
HHHHHHKLLKRWEAKLAKALAKALAKHLAKALAKA [FSD35]	96.1 ± 1.67	81.7 ± 3.45	
HHHHHHKWKIARAFARSLKKLYARLLARQAKTGHHHHHH [FSD15]	98.3 ± 1.07		viability (in vitro [2]): 96.1 ± 2.61%
HHHHHHKWKLARAFARAIKKLYARALRRQARTG [FSD8]	42.3 ± 6.42		viability (in vitro [2]; [4]): 64.8 ± 7.59%
HHHHHHKWKLARAFARAIKKLYARALRRQARTGHHHHHH [FSD9]	36.1 ± 3.41	79.5 ± 6.33	viability (in vitro [2]; [4]): 67.3 ± 5.19%; viability at 1 min, 8 µM (in vitro [2]; [3]): 82.3 ± 7.16%; viability at 2 min, 5 µM (in vitro [2]; [3]): 45.6 ± 3.64%
HHHHHHKWKLARAFARALRAIKKLYARALRRQARTG [FSD11]	46.2 ± 1.35		viability (in vitro [2]; [4]): 60.9 ± 7.59%
HHHHHHKWKLFKKIGAVLKVLTTGYARAAARQARAHHHHHH [His-CM18-PTD4-His]	29.4 ± 2.38		Cell viability (%) (±St. Dev.; n = 3) (HeLa cells; Table 10.3c, shuttle 10 μM, incubation 1 min): 68.1 ± 2.7%; Cell viability (%) (±St. Dev.; n = 3) (HeLa cells; Table 10.3c, shuttle 10 μM, incubation 2 min): 61.6 ± 3.2%; Cell viability (%) (±St. Dev.; n = 3) (HeLa cells; Table 10.3c, shuttle 10 μM, incubation 5 min): 41.2 ± 4.4%; Cell viability (%) (±St. Dev.; n = 3) (HeLa cells; [5]): 78.6 ± 1.1%

Compound	viability (in vitro [1]) [%]	viability at 1 min, 10 µM (in vitro [2]; [3]) [%]	further results
HHHHHHKWKLFKKIGAVLKVLTTGYGRKKRRQRRR [His-CM18-TAT]	13.6 ± 0.18		FIG. 21B Cell viability (%) (±St. Dev.; n = 3) (HeLa cells; shuttle 1 μM): 95 ± 3.05%; FIG. 21B Cell viability (%) (±St. Dev.; n = 3) (HeLa cells; shuttle 3 μM): 91 ± 5.18%; FIG. 21B Cell viability (%) (±St. Dev.; n = 3) (HeLa cells; shuttle 5 μM): 86 ± 4.59%; Cell viability (%) (±St. Dev.; n = 3) (HeLa cells; [6]): 35.2 ± 5.7%; Cell viability (%) (±St. Dev.; n = 3) (HeLa cells; Table 10.3a, shuttle 50 μM, 10 seconds): 35.2 ± 5.7%
HHHHHHKWKLFWEAKLAKYARAAARQARAARQARA [FSD27]	98 ± 0.63	96.6 ± 4.94	viability at 1 min, 10 µM (in vitro [2]; cell viability): 83.9 to 98%
HHHHHHLLKLWSRLLKLWTQGRRLKAKRAKA [FSD16]	99.07 ± 0.73		viability (in vitro [2]; [4]): 88.2 ± 2.66%
HHHHHHWARLARAFARAIKKLYARALRRQARTG [FSD7]	60.9 ± 7.59		viability (in vitro [2]; [4]): 38.5 ± 3.48%
HHHHHHWLKLLRRAAKKAARLYRKLLRKARKLHHHHHH [FSD2]	55.8 ± 4.19		viability (in vitro [2]; [4]): 76.3 ± 5.99%
HHHKWKLFKKIGAVLKVLTTGYARAAARQARA [3His-CM18-PTD4]	82 ± 6.81		Cell viability (%) (±St. Dev.; n = 3) (HeLa cells; [5]): 39.2 ± 3.3%
KWKLFKKIGAVLKVLTTG [CM18, reference compound]	99.4 ± 0.14		Cell viability (%) (±St. Dev.; n = 3) (HeLa cells; Table 10.4, peptide 50 μM, 10 seconds): 95 ± 1.2%
KWKLFKKIGAVLKVLTTGGGSGGGSGGGSGYARAAARQARA [CM18-L3-PTD4]	98.4 ± 0.83		viability at 1 min, 20 µM (in vitro [2]): 71.9 ± 6%; cell viability (HeLa cells; 1 minute): increased cell viability
KWKLFKKIGAVLKVLTTGGGSGGGSYARAAARQARA [CM18-L2-PTD4]	93.7 ± 3.07		Cell viability (%) (±St. Dev.; n = 3) (HeLa cells; [5]): 64.0 ± 1.3%; cell viability (HeLa cells; 1 minute): increased cell viability
KWKLFKKIGAVLKVLTTGGGSYARAAARQARA [CM18-L1-PTD4]	84.3 ± 5.64		Cell viability (%) (±St. Dev.; n = 3) (HeLa cells; [5]): 50.1 ± 3.8%; cell viability (HeLa cells; 1 minute): increased cell viability
KWKLFKKIGAVLKVLTTGYARAAARQARA [CM18-PTD4]	49.6 ± 5.06		Cell viability (%) (±St. Dev.; n = 3) (HeLa cells; [5]): 33.9 ± 3.7%; cell viability (HeLa cells; 1 minute): 33.9%
LHHHHHKLIHIWEAKLAKALAKALARRAAARQARA [FSD41]	94.4 ± 2.81	79.5 ± 0.33	
YGRKKRRQRRRCKWKLFKKIGAVLKVLTTG [TAT-CM18]	44.8 ± 4.17		Cell viability (%) (±St. Dev.; n = 3) (HeLa cells; [6]): 23.5 ± 1.1%; Cell viability (%) (±St. Dev.; n = 3) (HeLa cells; Table 10.3b, shuttle 50 μM, 10 seconds): 23.5 ± 1.1%
YGRKKRYMLRLWYQNLRMYCKKAYAQHRARQHAKL [FSD40]	98.6 ± 1.08	83.9 ± 4.16	viability at 1 min, 10 µM (in vitro [2]; cell viability): 83.9 to 98%
YHHHHHKWKKRWEAKLAKALRAAGRQARAKALAKA [FSD31]	98.43 ± 0.43	97.8 ± 4.22	

— patent US12286632B2, “Rationally-designed synthetic peptide shuttle agents for delivering polypeptide cargos from an extracellular space to the cytosol and/or nucleus of a target eukaryotic cell, uses thereof, methods and kits relating to same” (Feldan Bio Inc., priority 2016, dated 2025)
